Test results published in ChEMBL document CHEMBL4715694, “Discovery of novel tetrahydroisoquinoline-containing pyrimidines as ALK inhibitors” (Bioorg Med Chem, 2016).

How the values were obtained:
in vivo [1] = conditions: rat, po, 10 mg/kg
in vivo [2] = conditions: rat, po, 10 mg/kg; remark: listed apart in the source
in vitro [3] = conditions: rat, liver microsomes
in vitro [4] = conditions: human, liver microsomes

`Cc1cc(Nc2ncc(Cl)c(Nc3ccccc3S(=O)(=O)C(C)C)n2)c(OC(C)C)cc1C1CCNCC1` [CERITINIB] gave a Cmax (in vivo [1]) of 90 ng/mL, an AUC (in vivo [2]) of 1400 ng·h/mL and a remaining at 0.5 h, 1 µM (in vitro [3]) of 98%. The remaining at 0.5 h, 1 µM (in vitro [4]) was 88%.
